# Test results taken from patent US20250163522A1, “METHODS FOR PRESERVING HEALTHY INTESTINAL MICROBIOME DURING GROWTH PROMOTER ADMINSTRATION” (BIOMEDIT, LLC, priority 2022, published 2025).
# “Also recorded” adds a separate entry of the source.
# Tested on: cecal microbiome
# Assay: Shotgun metagenomics (functional/taxonomic profiles, GSEA) of cecal microbiome, day 35 broilers
# Assay type: in vivo, chickens (Gallus gallus)
# Conditions: day 35 cecal samples
# Description: 74 frozen cecal samples from day 35 birds were sent to CosmosID (Rockville, MD) for shotgun metagenomics sequencing. DNA was extracted using the ZymoBIOMICS DNA Miniprep Kit (ZymoBIOMICS, Irvine, CA) according to the manufacturers protocol. The isolated DNA was quantified by Qbit (ThermoFisher, Coon Rapids, MN). DNA libraries were prepared using the Illumina Nextera XT library preparation kit (Illumina, San Diego, CA), with a modified protocol. Libraries were then sequenced on an Illumina HiSeq platform 2×150 bp.
# Reads were trimmed and Illumina adapters removed using Trimmomatic (v 0.39) (Bolger et al., Bioinformatics 30, 2114-2120 (2014)) with options SLIDINGWINDOW:5:20 LEADING:3 TRAILING:3. Host reads (Gallus gallus, GenBank assembly GCA_000002315) and spike-in reads from Vibrio harveyii (ATCC 14126) were removed using Bowtie2 (v. 2.3.5.1) (Langmead et al., Nat Methods 9, 357-359 (2012)).
# Taxonomic profiling of individual reads was carried out using Kaiju (v. 1.7.3) (Menzel et al., Nat Commun 7, 11257 (2016)) with the nr_euk database. Kaiju outputs were summarized for each read as the number of bases aligned to proteins in the reference database. In cases of individual reads mapping to more than one taxonomic group, the number of bases assigned to each taxon was calculated as the alignment length (in base pairs) multiplied by the fraction of bases assigned unambiguously to said taxon out of all the taxa to which the read mapped. The numbers of assigned bases per read were used to estimate species-level relative abundances using metametamerge (v. 1.1) (Piro, V. C., et al., Microbiome 5, 101 (2017).) taking into account the average coding length per species in the nr_euk database.
# Functional profiling was done by first assembling the reads from each sample into contigs using Spades (v. 3.13.1, option --meta) (Nurk, S. et al., Genome Res 27, 824-834 (2017)), with default parameters, followed by protein prediction with Prokka (v. 1.14.5) (Seemann, T. Prokka: Bioinformatics 30, 2068-2069 (2014).). Predicted protein sequences were aligned to a reference database and using Diamond (v. 0.9.30) (Buchfink, B. et al. Nat Methods 18, 366-368 (2021)) and annotated based on the function assigned to the top hit in the database. To avoid misannotations, (Plata, G. et al. Nat Chem Biol 8, 848-854 (2012)) the inventors only considered hits with at least 70% identity and 70% query coverage. The reference database was built starting from 46,181 complete bacterial genomes downloaded from the PATRIC (Davis, J. J. et al. Nucleic Acids Res 48, D606-D612 (2020)) database representing at most 10 genomes per species from ˜400 taxonomic families including those most frequently observed in broiler microbiomes. To speed up functional annotations, protein sequences within each family in the database were clustered at 90% sequence identity using CD-HIT (v. 4.8.1) (Huang, Y. et al. Bioinformatics 26, 680-682 (2010)) and the longest sequence from each cluster was kept for the diamond search.
# To quantify the abundance of each function per sample, reads were mapped to the corresponding contigs using BWA (v. 0.7.17) (Li, H. & Durbin, R. Bioinformatics 25, 1754-1760 (2009)), and reads mapping to each predicted protein were counted with HTseq (v. 0.11.3) (Anders, S. et al. Bioinformatics 31, 166-169 (2015)). Read counts per RAST functional role were TPM normalized based on the Prokka protein lengths (Zhao, S. et. al. RNA 26, 903-909 (2020)) and expressed in units of mean copy numbers per genome by calculating a normalization factor such that the median abundance of a set of universal-single copy bacterial genes (Creevey, C. J. et al. PLOS One 6, e22099 (2011)) was set to 1 (Manor, O. & Borenstein, E. Genome Biology 16, 53 (2015)). A similar procedure was used to produce a copy-number normalized matrix of functional roles across samples stratified by the bacterial genera of the protein hits used to transfer functional annotations. […]
compound,measurement,value
CC[C@@H](C(=O)O)[C@@H]1O[C@@H]([C@@H](C)[C@H](O)[C@H](C)C(=O)[C@H](CC)[C@H]2O[C@]3(C=C[C@@H](O)[C@]4(CC[C@@](C)([C@H]5CC[C@](O)(CC)[C@H](C)O5)O4)O3)[C@H](C)C[C@@H]2C)[C@@H](C)C[C@@H]1C [narasin],functional processes depleted in cecal microbiome relative to controls (GSEA),"utilization of mucin polysaccharides as well as cell matrix components including sialic acid, N-acetylneuraminate and hyaluronic acid"
same,functional processes enriched in cecal microbiome relative to controls (GSEA),"propanediol utilization, molybdenum-containing cofactor synthesis and CO2 fixation via the Wood-Ljungdahl pathway; also recorded: Tryptophan synthesis, urea degradation, heme and tetrapyrrole biosynthesis, and xylose utilization"
